The values below come from publication PMC8213057, “Targeting ALK2: An Open Science Approach to Developing Therapeutics for the Treatment of Diffuse Intrinsic Pontine Glioma” (Journal of Medicinal Chemistry, 2020).

Values joined by “and” are separate entries in the source; they are usually repeats but may differ in a detail not shown here. Equal entries are not always repeated.

One experiment concerns the target ROCK2 (Homo sapiens, UniProt O75116). Briefly: biochemical. The settings on record: read-out: % enzyme activity, 1 μM; Run 1, Run 2.
In the next experiment the target is TESK1 (Homo sapiens, UniProt Q15569). As to conditions: 1 μM; Run 1, Run 2.
The next experiment addresses WNK2 (Homo sapiens, UniProt Q9Y3S1). Briefly: biochemical. The settings on record: read-out: % enzyme activity, 1 μM; Run 1, Run 2.
For another experiment, the target named is P38a/MAPK14 (Homo sapiens, UniProt Q16539). The settings on record: 1 μM; Run 1, Run 2.
For the next experiment, the target named is T1, c-MER (Homo sapiens, UniProt Q12866).
T1 sequence (Q12866 21-999): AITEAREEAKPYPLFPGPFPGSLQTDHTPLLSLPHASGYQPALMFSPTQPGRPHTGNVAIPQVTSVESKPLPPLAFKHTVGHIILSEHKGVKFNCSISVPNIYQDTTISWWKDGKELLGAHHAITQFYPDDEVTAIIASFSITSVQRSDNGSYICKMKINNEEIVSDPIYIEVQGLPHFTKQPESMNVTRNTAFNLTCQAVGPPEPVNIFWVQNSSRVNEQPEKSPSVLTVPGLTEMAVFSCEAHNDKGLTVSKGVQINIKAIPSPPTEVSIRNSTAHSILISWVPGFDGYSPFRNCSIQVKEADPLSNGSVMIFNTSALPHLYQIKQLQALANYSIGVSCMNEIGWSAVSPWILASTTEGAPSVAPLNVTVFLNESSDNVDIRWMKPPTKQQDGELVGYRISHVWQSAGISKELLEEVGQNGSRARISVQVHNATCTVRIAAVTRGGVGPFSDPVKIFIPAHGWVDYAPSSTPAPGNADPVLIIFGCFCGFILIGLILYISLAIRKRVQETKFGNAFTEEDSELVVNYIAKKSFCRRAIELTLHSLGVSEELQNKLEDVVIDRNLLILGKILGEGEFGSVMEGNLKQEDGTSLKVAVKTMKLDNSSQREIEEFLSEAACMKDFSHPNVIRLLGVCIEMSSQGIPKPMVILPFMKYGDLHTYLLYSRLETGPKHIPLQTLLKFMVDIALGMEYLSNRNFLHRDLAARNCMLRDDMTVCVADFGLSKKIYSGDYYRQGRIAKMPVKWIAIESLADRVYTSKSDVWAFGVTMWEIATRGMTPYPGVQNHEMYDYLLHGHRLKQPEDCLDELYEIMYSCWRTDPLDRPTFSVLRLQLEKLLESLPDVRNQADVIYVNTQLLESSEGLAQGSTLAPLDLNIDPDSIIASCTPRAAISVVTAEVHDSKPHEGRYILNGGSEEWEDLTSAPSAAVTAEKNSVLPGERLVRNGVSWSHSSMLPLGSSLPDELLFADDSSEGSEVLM
The experiment in a line: biochemical. As to conditions: read-out: % enzyme activity, 1 μM; Run 1, Run 2.

A further experiment deals with CLK3 (Homo sapiens, UniProt P49761). As to conditions: 1 μM; Run 1, Run 2.
The target in the next experiment is T2, PKG1a (Homo sapiens, UniProt Q13976).
T2 sequence (Q13976 1-671): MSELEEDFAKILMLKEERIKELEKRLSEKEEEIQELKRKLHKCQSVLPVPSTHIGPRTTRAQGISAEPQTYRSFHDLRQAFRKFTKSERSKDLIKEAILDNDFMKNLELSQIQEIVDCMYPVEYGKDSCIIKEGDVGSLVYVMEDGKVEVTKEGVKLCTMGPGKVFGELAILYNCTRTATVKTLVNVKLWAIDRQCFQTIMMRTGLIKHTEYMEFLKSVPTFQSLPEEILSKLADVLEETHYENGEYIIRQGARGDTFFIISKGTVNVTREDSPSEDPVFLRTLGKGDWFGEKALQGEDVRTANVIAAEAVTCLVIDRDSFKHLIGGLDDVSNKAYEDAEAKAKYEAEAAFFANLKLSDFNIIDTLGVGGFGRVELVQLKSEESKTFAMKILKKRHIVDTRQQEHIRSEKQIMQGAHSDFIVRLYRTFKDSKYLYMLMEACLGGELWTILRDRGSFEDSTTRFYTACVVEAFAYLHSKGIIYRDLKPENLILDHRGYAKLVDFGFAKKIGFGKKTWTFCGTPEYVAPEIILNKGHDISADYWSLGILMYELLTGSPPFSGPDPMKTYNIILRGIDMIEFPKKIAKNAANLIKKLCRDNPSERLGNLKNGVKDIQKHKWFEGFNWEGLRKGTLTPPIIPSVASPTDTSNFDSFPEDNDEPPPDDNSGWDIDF
The experiment in a line: biochemical. As to conditions: read-out: % enzyme activity, 1 μM; Run 1, Run 2.

The target of a further experiment is T3, DRAK1/STK17A (Homo sapiens, UniProt Q9UEE5).
T3 sequence (Q9UEE5 1-414): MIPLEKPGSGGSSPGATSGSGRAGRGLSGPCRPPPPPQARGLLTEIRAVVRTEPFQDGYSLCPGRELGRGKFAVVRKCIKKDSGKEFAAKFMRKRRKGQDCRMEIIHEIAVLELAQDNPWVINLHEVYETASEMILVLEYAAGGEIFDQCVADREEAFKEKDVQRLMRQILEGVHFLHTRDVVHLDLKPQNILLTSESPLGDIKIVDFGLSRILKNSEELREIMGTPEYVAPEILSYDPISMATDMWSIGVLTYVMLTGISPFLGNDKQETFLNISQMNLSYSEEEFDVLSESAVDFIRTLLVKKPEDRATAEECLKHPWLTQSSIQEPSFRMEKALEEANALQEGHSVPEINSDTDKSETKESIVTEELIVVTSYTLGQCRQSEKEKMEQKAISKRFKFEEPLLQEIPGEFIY
The settings on record: 1 μM; Run 1, Run 2.

For a further experiment, the target named is ERK1 (Homo sapiens, UniProt P27361). The experiment in a line: biochemical. The settings on record: read-out: % enzyme activity, 1 μM; Run 1, Run 2.
The next experiment concerns the target MRCKa/CDC42BPA (Homo sapiens, UniProt Q5VT25). The settings on record: 1 μM; Run 1, Run 2.

Chain of TESK1 (Q15569 whole entry): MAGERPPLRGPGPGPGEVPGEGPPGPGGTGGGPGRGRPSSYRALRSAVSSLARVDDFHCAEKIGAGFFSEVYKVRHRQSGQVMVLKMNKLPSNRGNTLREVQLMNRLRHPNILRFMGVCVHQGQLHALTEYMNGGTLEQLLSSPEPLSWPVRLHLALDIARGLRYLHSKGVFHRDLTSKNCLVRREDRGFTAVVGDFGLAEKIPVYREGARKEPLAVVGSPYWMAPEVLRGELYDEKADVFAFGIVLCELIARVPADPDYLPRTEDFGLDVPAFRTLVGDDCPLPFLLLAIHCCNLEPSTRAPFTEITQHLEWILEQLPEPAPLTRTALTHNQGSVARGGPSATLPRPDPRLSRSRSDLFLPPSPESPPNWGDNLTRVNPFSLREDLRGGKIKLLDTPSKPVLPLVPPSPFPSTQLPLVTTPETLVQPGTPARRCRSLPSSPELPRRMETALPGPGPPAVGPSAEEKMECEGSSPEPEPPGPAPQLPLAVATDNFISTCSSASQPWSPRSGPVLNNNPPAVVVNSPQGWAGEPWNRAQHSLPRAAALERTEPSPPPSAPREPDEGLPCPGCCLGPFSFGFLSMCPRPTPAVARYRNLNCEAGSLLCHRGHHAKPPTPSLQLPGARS
Chain of MRCKa/CDC42BPA (Q5VT25 whole entry): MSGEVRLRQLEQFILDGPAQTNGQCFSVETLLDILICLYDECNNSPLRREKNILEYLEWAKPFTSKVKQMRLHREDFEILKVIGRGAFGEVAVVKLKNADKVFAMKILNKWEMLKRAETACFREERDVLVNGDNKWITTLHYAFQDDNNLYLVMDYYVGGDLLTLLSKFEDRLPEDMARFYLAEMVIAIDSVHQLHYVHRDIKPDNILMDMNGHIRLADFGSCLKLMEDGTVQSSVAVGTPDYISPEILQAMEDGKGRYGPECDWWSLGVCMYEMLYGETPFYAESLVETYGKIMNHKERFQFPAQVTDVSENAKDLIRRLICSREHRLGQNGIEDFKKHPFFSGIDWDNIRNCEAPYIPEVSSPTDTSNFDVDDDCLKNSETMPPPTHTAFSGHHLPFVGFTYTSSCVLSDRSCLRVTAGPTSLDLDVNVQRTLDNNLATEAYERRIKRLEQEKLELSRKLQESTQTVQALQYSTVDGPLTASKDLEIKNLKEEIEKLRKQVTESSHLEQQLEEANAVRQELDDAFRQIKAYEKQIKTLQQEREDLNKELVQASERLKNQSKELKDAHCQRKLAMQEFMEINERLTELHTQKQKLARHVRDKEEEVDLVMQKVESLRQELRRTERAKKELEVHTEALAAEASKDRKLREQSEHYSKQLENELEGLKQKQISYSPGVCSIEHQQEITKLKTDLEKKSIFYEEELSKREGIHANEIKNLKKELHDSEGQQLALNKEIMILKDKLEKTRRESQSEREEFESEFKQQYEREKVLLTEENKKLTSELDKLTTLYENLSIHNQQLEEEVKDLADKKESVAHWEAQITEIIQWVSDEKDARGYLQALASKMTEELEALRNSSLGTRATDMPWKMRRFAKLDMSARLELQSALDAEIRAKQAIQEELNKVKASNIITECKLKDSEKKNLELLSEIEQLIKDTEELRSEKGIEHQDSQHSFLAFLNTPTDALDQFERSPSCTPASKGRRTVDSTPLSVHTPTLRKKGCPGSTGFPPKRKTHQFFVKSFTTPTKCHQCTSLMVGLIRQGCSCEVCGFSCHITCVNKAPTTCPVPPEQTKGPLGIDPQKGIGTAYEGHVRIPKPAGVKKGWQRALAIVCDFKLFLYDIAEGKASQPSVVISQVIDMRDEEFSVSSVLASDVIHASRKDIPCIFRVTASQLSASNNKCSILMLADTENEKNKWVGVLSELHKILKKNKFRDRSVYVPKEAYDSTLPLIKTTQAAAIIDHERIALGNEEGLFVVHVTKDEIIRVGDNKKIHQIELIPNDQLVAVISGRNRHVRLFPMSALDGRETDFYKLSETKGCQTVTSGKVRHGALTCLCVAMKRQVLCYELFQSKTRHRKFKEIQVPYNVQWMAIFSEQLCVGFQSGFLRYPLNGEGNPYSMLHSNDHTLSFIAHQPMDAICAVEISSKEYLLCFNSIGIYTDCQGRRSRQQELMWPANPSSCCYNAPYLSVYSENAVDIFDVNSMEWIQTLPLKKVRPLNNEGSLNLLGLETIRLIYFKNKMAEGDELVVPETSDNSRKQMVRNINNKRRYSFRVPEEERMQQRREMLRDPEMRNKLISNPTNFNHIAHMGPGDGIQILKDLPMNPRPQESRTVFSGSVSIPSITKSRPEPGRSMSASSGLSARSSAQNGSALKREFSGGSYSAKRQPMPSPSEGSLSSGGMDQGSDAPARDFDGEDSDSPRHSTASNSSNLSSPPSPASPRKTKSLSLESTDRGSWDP
Chain of P38a/MAPK14 (Q16539 whole entry): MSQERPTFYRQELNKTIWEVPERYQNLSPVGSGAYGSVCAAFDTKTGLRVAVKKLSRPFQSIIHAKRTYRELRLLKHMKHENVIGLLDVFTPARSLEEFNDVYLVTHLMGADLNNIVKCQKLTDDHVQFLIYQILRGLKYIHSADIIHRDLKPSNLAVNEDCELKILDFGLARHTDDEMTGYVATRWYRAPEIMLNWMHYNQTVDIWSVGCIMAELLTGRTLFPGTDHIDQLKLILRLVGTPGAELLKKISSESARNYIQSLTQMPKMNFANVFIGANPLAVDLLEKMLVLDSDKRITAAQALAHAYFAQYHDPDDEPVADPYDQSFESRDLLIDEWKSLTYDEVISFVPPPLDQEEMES
Chain of CLK3 (P49761 whole entry): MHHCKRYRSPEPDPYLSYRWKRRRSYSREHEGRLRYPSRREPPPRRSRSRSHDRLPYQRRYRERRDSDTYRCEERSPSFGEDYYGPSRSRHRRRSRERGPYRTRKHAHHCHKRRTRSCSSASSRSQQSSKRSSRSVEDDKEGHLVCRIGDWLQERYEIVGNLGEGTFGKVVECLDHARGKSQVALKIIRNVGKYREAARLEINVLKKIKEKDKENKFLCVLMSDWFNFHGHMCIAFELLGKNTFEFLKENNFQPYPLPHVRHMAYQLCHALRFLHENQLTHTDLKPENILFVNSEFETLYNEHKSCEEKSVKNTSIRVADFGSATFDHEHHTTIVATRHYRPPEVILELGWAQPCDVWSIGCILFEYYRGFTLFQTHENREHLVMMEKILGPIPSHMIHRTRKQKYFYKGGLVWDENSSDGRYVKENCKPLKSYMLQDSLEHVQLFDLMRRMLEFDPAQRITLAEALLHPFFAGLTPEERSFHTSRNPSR
Chain of ROCK2 (O75116 whole entry): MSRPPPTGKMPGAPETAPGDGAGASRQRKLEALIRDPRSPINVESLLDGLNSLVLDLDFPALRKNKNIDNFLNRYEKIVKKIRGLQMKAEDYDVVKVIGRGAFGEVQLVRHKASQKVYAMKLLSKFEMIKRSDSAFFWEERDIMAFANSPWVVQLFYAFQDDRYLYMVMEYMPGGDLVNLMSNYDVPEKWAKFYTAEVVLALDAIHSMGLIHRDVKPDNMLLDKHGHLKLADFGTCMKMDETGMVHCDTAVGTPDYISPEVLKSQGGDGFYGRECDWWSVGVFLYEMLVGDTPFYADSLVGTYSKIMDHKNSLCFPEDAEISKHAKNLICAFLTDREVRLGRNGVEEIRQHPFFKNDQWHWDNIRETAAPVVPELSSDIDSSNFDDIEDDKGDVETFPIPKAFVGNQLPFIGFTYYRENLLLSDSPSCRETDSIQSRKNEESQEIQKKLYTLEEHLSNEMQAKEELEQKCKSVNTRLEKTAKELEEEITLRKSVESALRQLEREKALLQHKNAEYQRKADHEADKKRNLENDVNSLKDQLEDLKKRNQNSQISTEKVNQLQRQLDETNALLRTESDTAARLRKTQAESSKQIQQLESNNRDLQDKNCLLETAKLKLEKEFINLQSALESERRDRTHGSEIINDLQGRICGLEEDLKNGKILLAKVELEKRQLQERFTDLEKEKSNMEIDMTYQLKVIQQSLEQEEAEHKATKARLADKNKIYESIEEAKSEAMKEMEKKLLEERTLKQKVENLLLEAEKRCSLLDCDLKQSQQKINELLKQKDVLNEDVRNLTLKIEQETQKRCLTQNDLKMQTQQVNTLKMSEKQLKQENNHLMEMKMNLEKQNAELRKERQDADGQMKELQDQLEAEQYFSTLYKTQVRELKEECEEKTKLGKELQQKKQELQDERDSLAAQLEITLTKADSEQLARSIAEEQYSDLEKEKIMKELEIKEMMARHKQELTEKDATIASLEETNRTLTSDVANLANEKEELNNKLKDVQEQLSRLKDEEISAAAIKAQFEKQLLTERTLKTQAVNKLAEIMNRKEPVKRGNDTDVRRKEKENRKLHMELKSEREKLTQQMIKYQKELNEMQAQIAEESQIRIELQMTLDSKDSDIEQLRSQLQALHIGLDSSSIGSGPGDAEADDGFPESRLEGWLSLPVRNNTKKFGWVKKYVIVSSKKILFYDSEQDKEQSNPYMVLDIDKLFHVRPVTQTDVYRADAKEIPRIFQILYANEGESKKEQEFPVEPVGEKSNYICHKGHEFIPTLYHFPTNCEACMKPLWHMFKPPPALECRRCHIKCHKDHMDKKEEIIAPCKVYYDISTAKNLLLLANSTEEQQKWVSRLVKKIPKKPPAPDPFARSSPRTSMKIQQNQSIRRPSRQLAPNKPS
Chain of ERK1 (P27361 whole entry): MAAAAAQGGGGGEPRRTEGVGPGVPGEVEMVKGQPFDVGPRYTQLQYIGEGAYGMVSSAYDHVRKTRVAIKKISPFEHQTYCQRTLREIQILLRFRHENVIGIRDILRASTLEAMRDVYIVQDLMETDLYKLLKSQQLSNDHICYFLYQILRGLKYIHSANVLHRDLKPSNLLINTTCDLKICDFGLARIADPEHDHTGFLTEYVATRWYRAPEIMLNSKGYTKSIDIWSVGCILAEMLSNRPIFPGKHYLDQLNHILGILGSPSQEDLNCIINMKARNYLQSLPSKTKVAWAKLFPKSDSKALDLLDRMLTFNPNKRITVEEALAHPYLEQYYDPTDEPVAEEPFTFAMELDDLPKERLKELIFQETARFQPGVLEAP

In the case of `COc1cc(-c2cncc(-c3ccc(N4CCN(C)CC4)cc3)c2C)cc(F)c1C(N)=O` [Compound 26a, 2-Fluoro-6-methoxy-4-(4-methyl-5-(4-(4-methylpiperazin-1-yl)phenyl)pyridin-3-yl)benzamide], the remaining activity at 1 µM stood at 116% on ROCK2; 95.5% at WNK2; 100% on c-MER; 97.9% on PKG1a; 97.3% at ERK1. Further, the “% enzyme activity” value turned out to be 108.88% on TESK1; 91.67% at P38a/MAPK14; 99.59% at CLK3; 95.60% on DRAK1/STK17A; 102.07% at MRCKa/CDC42BPA. Besides, the % enzyme activity at 1 μM with DDR1 was 32.1% and 31.2%. This compound also came in with a CYP inhibition at CYP1A2 of over 50 µM.
As for `COc1cc(-c2cncc(-c3ccc(N4C[C@@H](C)N(C)[C@@H](C)C4)cc3)c2C)cc(F)c1C(N)=O` [Compound 26c, 2-Fluoro-6-methoxy-4-(4-methyl-5-(4-((3R,5S)-3,4,5-trimethylpiperazin-1-yl)phenyl)pyridin-3-yl)benzamide], the remaining activity at 1 µM stood at 101% on ROCK2; 96.9% at WNK2; 101% on c-MER; 102% on PKG1a; 95.3% on ERK1. Further, the “% enzyme activity” value at TESK1 came to 105.23%; on P38a/MAPK14 it was 96.02%; at CLK3, 86.89%; at DRAK1/STK17A, 95.69%; on MRCKa/CDC42BPA it was 104.72%. The % enzyme activity at 1 μM with DDR1 was 57.2% and 55.5%. For the same compound, at CYP1A2, the CYP inhibition was over 50 µM.
